# Data as given in patent EP4563149A1, “LURBINECTEDIN, ECUBECTEDIN AND A RELATED COMPOUND FOR USE IN THE TREATMENT OF SKIN CANCERS” (Pharma Mar, S.A., priority 2023, dated 2025).
# Like-named read-outs stand apart in the source and are kept apart here.
# What was measured:
# [1] = tested on: melanoma cell cultures or cell lines; experiment: Clonogenic assay; type: cell-based, human; details: 48h at IC50 concentrations, then 10 days without drug
# Protocol: Based on the cell viability assays conducted above, the efficacy of lurbinectedin, PM14 or Compound IA on melanoma cell proliferation was investigated. Initially, a clonogenic assay was performed. Cells were drug-treated at IC50 concentrations during 48h before seeding 1×10^3 or 2×10^3 cells in 6-well plates without drug, wherein they grew for 10 days to allow for colony formation. Afterwards, cells were fixed for 10min with 4% formaldehyde solution, washed once with PBS and stained with Crystal Violet solution 0.2% for 15 min. The wells were finally washed twice with deionized water, air dried, scanned and analyzed with Fiji software to count the number of colonies.
# melanoma cells = experiment: Apoptosis by flow cytometry (AnnexinV-APC); type: cell-based, human; details: IC50 concentrations, Annexin V-APC
# Protocol: After 48h of incubation, cells were rinsed and incubated with AnnexinV-APC (BD Biosciences). Cell proliferation and apoptosis were detected on a BD LSRFortessaTM Flow Cytometer. Data were analyzed with FlowJo software. To define slow proliferating or apoptotic cells: it was considered that slow proliferating cells represented the 30% of cells with the highest concentration of CellTrace Violet signal in the DMSO control. […] For apoptotic cells, it was considered the 20% of cells with the highest signal of AnnexinV-APC in the DMSO control.
# MM074 melanospheres = experiment: Melanosphere apoptosis (AnnexinV-APC / propidium iodide); type: cell-based, human; details: 72h
# Protocol: MM074 proliferative/differentiated cell line were seeded (5×10^4 cells) in ultra-low attachment hydrogel-layered 96 well plates in KO DMEM medium supplemented with 20% KSR, AANE, 2 mM Glutamax, Penicillin/Streptomycin and 100 uM Beta-mercaptoethanol. To allow for melanosphere formation, cells were left to grow for 4 days before drug treatment.
# For apoptosis assays with 3D-grown melanoma cells, TrypLe Select 10x reagent (Gibco) was used to dissociate melanospheres to obtain single-cell suspensions. These cells were incubated with AnnexinV-APC (Biolegend) and Propidium Iodide (PI, Biolegend). With bivariant dot plots, it was distinguished between viable (AnnexinV-/PI-), early apoptotic (AnnexinV+/PI-), late apoptotic (AnnexinV+/PI+) and necrotic cells (AnnexinV-/PI+).
# [2] = tested on: 501mel, 501mel^VemuR and SKMEL28-derived xenografts; details: 24h after single IV dose of 1.2 mg/kg
# Description: To investigate the effects of the aforementioned tested drugs in living organisms, it was decided to examine the impact of PM14 and Compound IA on melanoma cell-derived xenograft (CDXs) mouse models. Human 501mel, 501mel^VemuR or SKMEL28 melanoma cells were subcutaneously implanted into the right flank of NSG mice.
# [3] = tested on: 501mel melanoma xenografts; details: 1.2 mg/kg intravenous
# Protocol: (§1) Female athymic nu/nu mice (Harlan Laboratories Models, S.L. Barcelona, Spain or Envigo, Spain) were utilized for all experiments. Animal were housed in individually ventilated cages Sealsafe® Plus, Techmplast S.P.A.), up to ten per cage on a 12-hour light-dark cycle at 21-23 °C and 40-60 % humidity. Mice were allowed free access to irradiated standard rodent diet (Tecklad 2914C) and sterilized water. Animals were acclimated for at least 5 days prior to tumor implantation with a tumor cell suspension.
# (§2) The cell line used are: • 501mel • IGR-37 • SK-Mel-28 • WM-266-4 • LOX-IMVI • 501mel^Vemur
# (§3) In xenograft studies with cell lines: • Tumour volume was calculated using the equation […], where a: length (longest diameter) and b: width (shortest diameter) were measured in mm by using digital caliper (Fowler Sylvac, S235PAT). Tumour dimensions and body weights were recorded 2-3 times per week starting from the first day of treatment. • When tumors reached ca. 150-250 mm^3, tumour bearing animals (N = 8-10/group) were randomly allocated into the treatment groups, based on body weight and tumour measurements by using NewLab Oncology Software (version 2.25.06.00). • Comparison between median tumour volume of treated and placebo groups was used for evaluation of the antitumoural efficacy. • Animals were euthanized when their tumours reached ca. 1,500 mm^3 and/or severe necrosis was seen.
# (§4) Treatments producing >20 % lethality and/or 20% net body weight loss were considered toxic.
# (§5) In these experiments, PM14 and Compound IA, as well as placebo, were intravenously administered once per week for 3 consecutive weeks, on days 0, 7 and 14, whenever it was possible.
# Table 4. Tumour volume evaluation in 501mel melanoma xenografts with PM14 and Compound IA and placebo.
# [4] = tested on: IGR-37 melanoma xenografts; details: 1.2 mg/kg intravenous
# Protocol: as §1, §2, §3, §4, §5
# Table 5. Tumour volume evaluation in IGR-37 melanoma xenografts with PM14 and Compound IA and placebo.
# [5] = tested on: LOX-IMVI melanoma xenografts; details: 1.2 mg/kg intravenous
# Protocol: as §1, §2, §3, §4, §5
# Tumour volume evaluation in LOX-IMVI melanoma xenografts with PM14 and Compound IA and placebo.
# MM011 = experiment: Cell viability assay (PrestoBlue), 72h; details: Homo sapiens
# Protocol: (§6) Cells were grown at 37°C in 5% CO2 (10% for Hermes 3A) and were regularly checked for mycoplasma contamination. […] Melanoma cell lines 501mel and SKmel28 were grown in RPMI w/o HEPES (Gibco, Invitrogen) supplemented with 10% FCS and gentamycin. Vemurafenib-resistant cells (501melVemuR and MM074VemuR) were additionally supplemented with 1.5 µM of vemurafenib. Melanoma IGR cell lines (IGR37 and IGR39) were grown in RPMI w/o HEPES (Gibco, Invitrogen) supplemented with 15% FCS and gentamycin.
# (§7) To determine the IC50 (half maximal inhibitory concentration) of these cells to various inhibitors, cell viability assays were performed.
# (§8) After 72h of treatment with different concentrations of the compounds, cells were treated with PrestoBlue reagent according to the manufacturer's instructions. The absorbance per well was measured with a Cellinsight CX5 microplate reader. Data were analyzed using Prism9 statistical software.
# SKMEL-28 = experiment: Cell viability assay (PrestoBlue), 72h; details: Homo sapiens, SK-MEL-28, 72 h
# Protocol: as §6, §7, §8
# MM074^VemuR = experiment: Cell viability assay (PrestoBlue), 72h; details: Homo sapiens
# Protocol: Cells were grown at 37°C in 5% CO2 (10% for Hermes 3A) and were regularly checked for mycoplasma contamination. MM patient-derived short-term melanoma cultures (MM011, MM074, MM117, MM029, MM047, MM099) were grown in HAM-F10 (Gibco, Invitrogen) supplemented with 10% Fetal Calf Serum (FCS), 25 mM HEPES, 5.2 mM GLUTAMAX and penicillin-streptomycin. Melanoma cell lines 501mel and SKmel28 were grown in RPMI w/o HEPES (Gibco, Invitrogen) supplemented with 10% FCS and gentamycin. Vemurafenib-resistant cells (501melVemuR and MM074VemuR) were additionally supplemented with 1.5 µM of vemurafenib. Melanoma IGR cell lines (IGR37 and IGR39) were grown in RPMI w/o HEPES (Gibco, Invitrogen) supplemented with 15% FCS and gentamycin.
# as §7, §8
compound,measurement,setting,value
"COc1c(C)cc2c(c1O)[C@@H]1[C@@H]3[C@@H]4SC[C@]5(N[C@H](CO)Cc6c5[nH]c5ccccc65)C(=O)OC[C@@H](c5c6c(c(C)c(OC(C)=O)c54)OCO6)N3[C@@H](O)[C@H](C2)N1C [PM14, ecubectedin]",colony formation (number of colonies),[1],significant impact
same,apoptosis,melanoma cells,induction of apoptosis
same,late apoptotic cells positive for Annexin V and propidium iodide,MM074 melanospheres,substantial population of late apoptotic cells
same,fraction of apoptotic cells (cleaved caspase-3),[2],significant increase
same,Median Tumour Volume,"[3]; days 0, 7 and 14, day 0",158.8 mm^3
same,Median Tumour Volume,"[3]; days 0, 7 and 14, day 3",215.5 mm^3
same,Median Tumour Volume,"[3]; days 0, 7 and 14, day 5",252.3 mm^3
same,Median Tumour Volume,"[3]; days 0, 7 and 14, day 7",372.7 mm^3
same,Median Tumour Volume,"[3]; days 0, 7 and 14, day 10",503.6 mm^3
same,Median Tumour Volume,"[3]; days 0, 7 and 14, day 12",599.4 mm^3
same,Median Tumour Volume,"[3]; days 0, 7 and 14, day 14",797.2 mm^3
same,Median Tumour Volume,"[3]; days 0, 7 and 14, day 17",950 mm^3
same,Median Tumour Volume,"[3]; days 0, 7 and 14, day 19","1,113.5 mm^3"
same,Median Tumour Volume,"[3]; days 0, 7 and 14, day 21","1,309.8 mm^3"
same,Median Tumour Volume,"[3]; days 0, 7 and 14, day 24","1,530.7 mm^3"
same,Median Tumour Volume,"[4]; days 0, 7 and 14, day 0",150.4 mm^3
same,Median Tumour Volume,"[4]; days 0, 7 and 14, day 2",216.6 mm^3
same,Median Tumour Volume,"[4]; days 0, 7 and 14, day 4",326.3 mm^3
same,Median Tumour Volume,"[4]; days 0, 7 and 14, day 7",544.5 mm^3
same,Median Tumour Volume,"[4]; days 0, 7 and 14, day 9",704.9 mm^3
same,Median Tumour Volume,"[4]; days 0, 7 and 14, day 11",821.6 mm^3
same,Median Tumour Volume,"[4]; days 0, 7 and 14, day 14","1,127.4 mm^3"
same,Median Tumour Volume,"[4]; days 0, 7 and 14, day 16","1,351.7 mm^3"
same,Median Tumour Volume,"[4]; days 0, 7 and 14, day 18","1,594 mm^3"
same,Median Tumour Volume,"[5]; days 0, 7 and 14, day 0",185 mm^3
same,Median Tumour Volume,"[5]; days 0, 7 and 14, day 2",173.7 mm^3
same,Median Tumour Volume,"[5]; days 0, 7 and 14, day 4",103.2 mm^3
same,Median Tumour Volume,"[5]; days 0, 7 and 14, day 7",73.8 mm^3
same,Median Tumour Volume,"[5]; days 0, 7 and 14, day 9",68.5 mm^3
same,Median Tumour Volume,"[5]; days 0, 7 and 14, day 11",51.2 mm^3
same,Median Tumour Volume,"[5]; days 0, 7 and 14, day 14",37.5 mm^3
same,Median Tumour Volume,"[5]; days 0, 7 and 14, day 16",40.8 mm^3
same,Median Tumour Volume,"[5]; days 0, 7 and 14, day 18",35.3 mm^3
same,Median Tumour Volume,"[5]; days 0, 7 and 14, day 21",43.5 mm^3
same,Median Tumour Volume,"[5]; days 0, 7 and 14, day 23",55.5 mm^3
same,Median Tumour Volume,"[5]; days 0, 7 and 14, day 25",68.5 mm^3
same,Median Tumour Volume,"[5]; days 0, 7 and 14, day 28",233.4 mm^3
same,Median Tumour Volume,"[5]; days 0, 7 and 14, day 30",547.3 mm^3
same,Median Tumour Volume,"[5]; days 0, 7 and 14, day 32","1,044 mm^3"
same,Median Tumour Volume,"[5]; days 0, 7 and 14, day 35","1,565 mm^3"
same,Median Tumour Volume,"[5]; days 0, 7 and 14, day 37","1,610.4 mm^3"
same,IC50,MM011,1.07 nM
same,IC50,SKMEL-28,1.31 nM
same,IC50,MM074^VemuR,1.63 nM
COc1c(C)cc2c(c1O)[C@@H]1[C@@H]3[C@@H]4SC[C@]5(N[C@H](CO)Cc6c5oc5ccccc65)C(=O)OC[C@@H](c5c6c(c(C)c(OC(C)=O)c54)OCO6)N3[C@@H](O)[C@H](C2)N1C [Compound IA],colony formation (number of colonies),[1],significant impact
same,apoptosis,melanoma cells,induction of apoptosis
same,late apoptotic cells positive for Annexin V and propidium iodide,MM074 melanospheres,substantial population of late apoptotic cells
same,fraction of apoptotic cells (cleaved caspase-3),[2],significant increase
same,Median Tumour Volume,"[3]; days 0, 7 and 14, day 0",158.5 mm^3
same,Median Tumour Volume,"[3]; days 0, 7 and 14, day 3",208.3 mm^3
same,Median Tumour Volume,"[3]; days 0, 7 and 14, day 5",279.8 mm^3
same,Median Tumour Volume,"[3]; days 0, 7 and 14, day 7",328.5 mm^3
same,Median Tumour Volume,"[3]; days 0, 7 and 14, day 10",455.2 mm^3
same,Median Tumour Volume,"[3]; days 0, 7 and 14, day 12",614.1 mm^3
same,Median Tumour Volume,"[3]; days 0, 7 and 14, day 14",749.8 mm^3
same,Median Tumour Volume,"[3]; days 0, 7 and 14, day 17",913 mm^3
same,Median Tumour Volume,"[3]; days 0, 7 and 14, day 19","1,233 mm^3"
same,Median Tumour Volume,"[3]; days 0, 7 and 14, day 21","1,341.4 mm^3"
same,Median Tumour Volume,"[3]; days 0, 7 and 14, day 24","1,581.4 mm^3"
same,Median Tumour Volume,"[4]; days 0, 7 and 14, day 0",150 mm^3
same,Median Tumour Volume,"[4]; days 0, 7 and 14, day 2",236.5 mm^3
same,Median Tumour Volume,"[4]; days 0, 7 and 14, day 4",377.5 mm^3
same,Median Tumour Volume,"[4]; days 0, 7 and 14, day 7",608 mm^3
same,Median Tumour Volume,"[4]; days 0, 7 and 14, day 9",886.9 mm^3
same,Median Tumour Volume,"[4]; days 0, 7 and 14, day 14","1,163.9 mm^3"
same,Median Tumour Volume,"[4]; days 0, 7 and 14, day 16",936.5 mm^3
same,Median Tumour Volume,"[4]; days 0, 7 and 14, day 18","1,027.6 mm^3"
same,Median Tumour Volume,"[5]; days 0, 7 and 14, day 0",186.2 mm^3
same,Median Tumour Volume,"[5]; days 0, 7 and 14, day 2",196.3 mm^3
same,Median Tumour Volume,"[5]; days 0, 7 and 14, day 4",138.7 mm^3
same,Median Tumour Volume,"[5]; days 0, 7 and 14, day 7",106.8 mm^3
same,Median Tumour Volume,"[5]; days 0, 7 and 14, day 9",87.8 mm^3
same,Median Tumour Volume,"[5]; days 0, 7 and 14, day 11",56 mm^3
same,Median Tumour Volume,"[5]; days 0, 7 and 14, day 14",53.5 mm^3
same,Median Tumour Volume,"[5]; days 0, 7 and 14, day 16",54.7 mm^3
same,Median Tumour Volume,"[5]; days 0, 7 and 14, day 18",51.4 mm^3
same,Median Tumour Volume,"[5]; days 0, 7 and 14, day 21",71.2 mm^3
same,Median Tumour Volume,"[5]; days 0, 7 and 14, day 23",99.9 mm^3
same,Median Tumour Volume,"[5]; days 0, 7 and 14, day 25",132 mm^3
same,Median Tumour Volume,"[5]; days 0, 7 and 14, day 28",597.7 mm^3
same,Median Tumour Volume,"[5]; days 0, 7 and 14, day 30","1,158.4 mm^3"
same,Median Tumour Volume,"[5]; days 0, 7 and 14, day 32","1,098.3 mm^3"
same,Median Tumour Volume,"[5]; days 0, 7 and 14, day 35",968.8 mm^3
same,Median Tumour Volume,"[5]; days 0, 7 and 14, day 37","1,375.6 mm^3"
same,IC50,MM011,1.44 nM
same,IC50,SKMEL-28,1.74 nM
same,IC50,MM074^VemuR,3.08 nM
